Each structure is given as a SMILES string.

The assay deals with T1, GAR TFase (L1210) (Mus musculus, UniProt Q64737).
T1 construct: GAR TFase activity is the C-terminal domain of trifunctional Gart
T1 sequence (Q64737 2-1010): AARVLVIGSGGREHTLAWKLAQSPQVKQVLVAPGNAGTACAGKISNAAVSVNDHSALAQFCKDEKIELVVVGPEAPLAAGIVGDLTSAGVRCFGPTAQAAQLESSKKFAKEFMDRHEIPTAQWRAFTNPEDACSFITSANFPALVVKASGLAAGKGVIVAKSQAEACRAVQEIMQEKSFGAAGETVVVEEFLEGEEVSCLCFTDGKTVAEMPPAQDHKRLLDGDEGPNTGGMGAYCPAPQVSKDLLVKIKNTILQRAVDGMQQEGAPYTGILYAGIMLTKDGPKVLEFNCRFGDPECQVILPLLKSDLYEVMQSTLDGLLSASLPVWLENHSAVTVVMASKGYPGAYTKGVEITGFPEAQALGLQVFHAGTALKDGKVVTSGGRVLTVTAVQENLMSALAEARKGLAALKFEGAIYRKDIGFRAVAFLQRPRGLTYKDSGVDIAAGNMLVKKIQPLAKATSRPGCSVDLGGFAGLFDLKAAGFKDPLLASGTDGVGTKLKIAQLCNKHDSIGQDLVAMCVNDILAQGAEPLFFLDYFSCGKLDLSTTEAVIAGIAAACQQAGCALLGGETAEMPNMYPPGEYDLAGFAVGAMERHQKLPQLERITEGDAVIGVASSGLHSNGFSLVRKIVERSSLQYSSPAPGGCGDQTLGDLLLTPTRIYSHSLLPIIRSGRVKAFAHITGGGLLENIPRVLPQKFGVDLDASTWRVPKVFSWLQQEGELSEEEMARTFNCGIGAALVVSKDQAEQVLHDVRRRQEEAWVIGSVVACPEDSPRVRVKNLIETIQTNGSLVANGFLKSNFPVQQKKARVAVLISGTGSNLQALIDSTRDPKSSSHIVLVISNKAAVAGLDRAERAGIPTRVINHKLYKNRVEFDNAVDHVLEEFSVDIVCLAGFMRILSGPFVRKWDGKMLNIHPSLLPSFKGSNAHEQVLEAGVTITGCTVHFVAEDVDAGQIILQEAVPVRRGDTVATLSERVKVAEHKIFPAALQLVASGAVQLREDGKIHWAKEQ
Put plainly: L1210 GAR TFase inhibition. It is filed as biochemical. Particulars: for Mode of inhibition: L1210 GAR TFase. The protocol:
All assays were carried out by following the increase of 5,8-dideazafolate absorbence at 295 nm in buffered medium at 26° C. To initiate the reaction, enzyme (1 nM final concentration) was added to a mixture of saturating substrates and variable amounts of inhibitor. […] See, Morrison, Trends Biochem. Sc., 7, 102 (1982) and Morrison, et al., Adv. Enzymology, Relat. Areas Mol. Biol., 57, 201-301 (1987).
The specificity of beta-TGDDF for GAR TFase from species other than E. coli was assayed in a general manner by measuring the activity of GAR TFase at a concentration of 1 nM from avian, HeLa, and L121? sources in the presence of 20 nM beta-TGDDF.
This test, was conducted using the same [I]/[E]ratios as stated previously.
E. coli GAR TFase was prepared and purified as described below. L1210 and HeLa GAR TFase were purified according to published procedures. AICAR TFase was prepared according to published procedures.

As to `Nc1nc2ccc(CN(C(=O)CSCC(=O)N[C@@H]3O[C@H](COP(=O)(O)O)[C@@H](O)[C@H]3O)c3ccc(C(=O)N[C@@H](CCC(=O)O)C(=O)O)cc3)cc2c(=O)[nH]1` [beta-TGDDF, N^10-[5'-phosphoribosyl-1'-β-amino-carbonylmethyl-1-thioacetyl]-5,8-dideazafolate], the Mode of inhibition entry is “inhibition of a slow, tight binding nature”. For the same molecule, for the setting “20 nM beta-TGDDF, 1 nM enzyme”, the Extent of inhibition entry is on record as “inhibited by roughly the same magnitude”. The Mode of inhibition entry (listed as Beta-TGDDF) was “slow, tight-binding inhibitor”.

Values taken from patent US4999424A, “GAR transformylase inhibitor” (The Pennsylvania State University, priority 1988, dated 1991).
